In patent publication US9345789B2, “Specific inhibitors and active site probes for legumain” (The Board of Trustees of the Leland Stanford Junior …, priority 2009, dated 2016):
Values joined by “and” are separate entries in the source; they are usually repeats but may differ in a detail not shown here. Equal values may be shown once. Read-outs that look alike come from different tables or passages of the source.

Key:
recombinant legumain = recombinant legumain (Homo sapiens (Human), UniProt Q99538); assay: Inhibition of recombinant legumain, fluorogenic substrate Cbz-Ala-Ala-Asn-AMC; format: biochemical; details: for IC50: at 60 min
Procedure: (§1) Assay buffers consist of 20 mM citric acid, 60 mM disodium hydrogen orthophosphate, 1 mM EDTA, 0.1% CHAPS, 4 mM DTT, pH 5.8 for legumain, 50 mM dihydrogen sodium orthophosphate, 1 mM EDTA, 5 mM DTT, pH 6.25 for cathepsin B and cathepsin Land 100 mM Tris, 0.1% CHAPS, 10% sucrose, 10 mM DTT, pH 7.4 for caspase-3.
Second-order inhibition rate constants were determined by following the previously described method in the literature (6). The pseudo-first-order rate constants (kobs) were obtained from plots of In vJ Vo versus time where Vo is the rate of hydrolysis of fluorogenic substrate and Vt is the rate of hydrolysis of substrate in the presence of the inhibitor. The second-order inhibition rate constants were calculated using the following equation. Second order rate constant=(kobs1[I])(1+[S]/Km)

cathepsin L = cathepsin L (Homo sapiens (Human), UniProt P07711); assay: Inhibition of cathepsin L, fluorogenic substrate Cbz-Phe-Arg-AMC
Procedure: (§4) Determination of IC50 against cysteine proteases and second order rate constants (kobs1[I]) for legumain Activity of legumain was measured with the fluorogenic substrate, Cbz-Ala-Ala-Asn-AMC (Anaspec), cathepsin B and cathepsin L was measured with Cbz-Phe-Arg-AMC (Bachem), and caspase-3 was measured with Caspase-3 Substrate VII (Calbiochem). […] The increase in fluorescence was continuously monitored every 30 see for 2.5 hrs with a Spectramax M5 fluorescent plate reader (Molecular Devices), and inhibition curves were recorded. […] ICso values with known broad-spectrum cathepsin inhibitor (JPM-OEt) and caspase-3 inhibitor (Z-DEVD-FMK) were also measured for comparison. All measurements were performed in triplicate and the average values were reported.

[1] = system: caspase 3, cathepsin B or cathepsin L; assay: Selectivity: inhibition of enzymes other than legumain; format: biochemical; details: for inhibitory effect against other enzymes: even at millimolar concentrations
Procedure: Disclosed below are activity based probes, i.e., they only label active enzyme. The probes are specific for legumain, and may be used to inhibit or inhibit and label active enzyme in situ. […] It may be said, for example, the activity towards legumain will be on the order of at least 3 times greater for legumain than caspase 3, cathepsin B or cathepsin L, preferably at least 10 times greater, and even 100 times greater.
as §1

caspase-3 = caspase-3 (Homo sapiens (Human), UniProt P42574); assay: Inhibition of caspase-3, Caspase-3 Substrate VII; details: read-out: Caspase-3 IC50; at 30 min
Procedure: as §4

cathepsins [2] = assay: Off-target labeling of cathepsins in intact RAW 264.7 macrophages; format: cell-based; details: for labeling of cathepsins: high concentrations; for cross reactivity towards lysosomal cathepsins: intact RAW 264.7 macrophages
Procedure: Immunoprecipitation of cathepsins in intact raw 264.7 cells. […] High concentration of LP-1 was used to bring out all the off-target labeling in intact cells.
RAW 264.7 macrophages (600,000 cells/well) were seeded in a 6 well plate 24 hrs prior to labeling. […] High concentration of LP-1 was used to bring out all the off-target labeling in intact cells. Cells were washed with PBS buffer and lysed by addition of citrate-phosphate lysis buffer (50 mM citrate-phosphate, 1% CHAPS, 0.5% Triton, 5 mM DTT, pH 4.5). 20 μL of crude lysates were diluted to […] in RIPA buffer (phosphate-buffered saline, 0.5% NP-40, 1 mM EDTA, pH 7.4). Anti-mouse cathepsin B (E Weber Halle), anti-mouse cathepsin L (R&D Systems), anti-goat cathepsin S (Abchem) and anti-human cathepsin S (R&D Systems) were added and mixed for 15 mM at 0° C. 40 μL of Protein A/G Plus Agarose beads (Santa Cruz Biotechnology) were added and mixed overnight at 4° C. Samples were spun down and supernatant and beads were separated. Beads were washed with RIPA buffer and boiled after addition of sample buffer 2× (20% glycerol, 100 mM Tris HCl, pH 6.8, 6% SDS, and 10% b-mercaptoethanol). Acetone was added to the supernatant and kept at −80° C. for 2 h. Precipitated proteins were collected by centrifugation in the cold for 30 min, dried, and dissolved by boiling in sample buffer. Samples without immunoprecipitation (input), pellets (P) and supernatant (S) were separated on a 12.5% SDS-PAGE and visualized by scanning of the gel with a Typhoon flatbed laser scanner (excitation/emission 633/680 nm).
We treated intact NIH-3T3 and RAW 264.7 cells with LP-1 and LP-O respectively and monitored protein labeling using SDS-PAGE followed by scanning of the gel to detect the Cy5 fluorescence (FIG. 2). […] The identity of these off targets as cathepsins was confirmed by pre-treatment of cells with the broad-spectrum cathepsin inhibitor JPM-OEt (21) and further verified by immunoprecipitation (FIG. 16). Although some degree of cross reactivity of AOMK probes towards cathepsins has been reported (15), attempts to inhibit cathepsins with various aza-epoxide inhibitors have been unsuccessful (22). Therefore, the labeling of cathepsins by LP-I was particularly surprising. […] Furthermore, when cells were pre-treated with legumain inhibitors we observed more intense cathepsin labeling. […]
RAW 264.7 cells (250,000 cells/well) and NIH-3T3 cells (200,000 cells/well) were seeded in a 24 well plate 24-30 hrs prior to labeling. […] Labeled proteins were analyzed by scanning the gel with a Typhoon flatbed laser scanner (ex. 633 nM/em. 680 nM). […] The labeled samples were separated by 12.5% SDS-PAGE and analyzed by scanning the gel with a Typhoon flatbed scanner.

legumain [3] = biological target: T1, legumain (Mus musculus (Mouse), UniProt O89017); assay: Labeling of active legumain in intact NIH-3T3 fibroblasts (SDS-PAGE, Cy5 scan); format: cell-based
Excerpt: We treated intact NIH-3T3 and RAW 264.7 cells with LP-1 and LP-O respectively and monitored protein labeling using SDS-PAGE followed by scanning of the gel to detect the Cy5 fluorescence (FIG. 2). […] The identity of these off targets as cathepsins was confirmed by pre-treatment of cells with the broad-spectrum cathepsin inhibitor JPM-OEt (21) and further verified by immunoprecipitation (FIG. 16). Although some degree of cross reactivity of AOMK probes towards cathepsins has been reported (15), attempts to inhibit cathepsins with various aza-epoxide inhibitors have been unsuccessful (22). Therefore, the labeling of cathepsins by LP-I was particularly surprising. […] Furthermore, when cells were pre-treated with legumain inhibitors we observed more intense cathepsin labeling. This could be explained by the fact that cathepsins are known to be substrates for legumain (3, 23), thus legumain inhibition could result in increased levels of cathepsins and therefore increased non-specific labeling by the legumain probes.
(§2) RAW 264.7 cells (250,000 cells/well) and NIH-3T3 cells (200,000 cells/well) were seeded in a 24 well plate 24-30 hrs prior to labeling. Cells were pre-treated with appropriate inhibitors for 1.5 hrs and labeled by addition of each probe for 1 hrs; the final DMSO concentration was maintained less than 0.2%. Cells were washed with PBS buffer and lysed by addition of sample buffer. Crude lysates were collected and separated by 12.5% SDS-PAGE. Labeled proteins were analyzed by scanning the gel with a Typhoon flatbed laser scanner (ex. 633 nM/em. 680 nM). For lysates labeling, cytosolic lysates of RAW 264.7 cells were prepared as previously described (29). Lysates were diluted to 1 mg/ml in 50 mM citrate phosphate buffer (pH 4.5), 0.1% CHAPS, 5 mM DTT and subjected to direct labeling. 25˜L of lysates samples were pre-treated with inhibitors for 30 min and labeled with probes for another 30 min. The labeled samples were separated by 12.5% SDS-PAGE and analyzed by scanning the gel with a Typhoon flatbed scanner.
Target sequence in this assay (O89017 18-325): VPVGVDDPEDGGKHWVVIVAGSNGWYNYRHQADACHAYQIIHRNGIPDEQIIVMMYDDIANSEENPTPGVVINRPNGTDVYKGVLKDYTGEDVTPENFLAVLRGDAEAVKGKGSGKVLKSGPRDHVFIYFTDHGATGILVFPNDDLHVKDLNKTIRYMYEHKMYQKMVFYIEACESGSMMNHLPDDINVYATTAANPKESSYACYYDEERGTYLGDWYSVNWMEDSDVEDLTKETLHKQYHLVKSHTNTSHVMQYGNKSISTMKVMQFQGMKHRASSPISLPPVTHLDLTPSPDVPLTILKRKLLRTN

legumain [4] = biological target: T1, legumain; assay: Direct labeling of legumain in RAW cell lysates; format: biochemical
Procedure: as §2
Target sequence in this assay (O89017 18-435): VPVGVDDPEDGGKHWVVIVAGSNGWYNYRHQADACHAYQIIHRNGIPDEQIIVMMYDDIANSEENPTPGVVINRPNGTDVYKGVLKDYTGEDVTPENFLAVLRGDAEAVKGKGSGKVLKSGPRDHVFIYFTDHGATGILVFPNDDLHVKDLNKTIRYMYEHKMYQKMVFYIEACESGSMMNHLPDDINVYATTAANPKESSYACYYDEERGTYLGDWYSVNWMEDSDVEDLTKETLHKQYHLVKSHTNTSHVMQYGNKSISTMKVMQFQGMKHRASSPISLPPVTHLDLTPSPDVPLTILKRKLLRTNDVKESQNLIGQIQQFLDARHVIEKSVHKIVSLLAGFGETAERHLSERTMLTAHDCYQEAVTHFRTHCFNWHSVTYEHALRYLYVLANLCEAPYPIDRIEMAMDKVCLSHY
We believe that this cross-reactivity results from increased lysosomal uptake and is not the result of a loss of specificity as the result of addition of the tat peptide. […] We also performed a competition assay by pre-treating RAW lysates with each probe and labeling with the general cathepsin probe, I^125_DCG04 (25).

legumain [5] = biological target: T1, legumain; assay: Ex vivo imaging of organs and SDS-PAGE analysis of organ lysates; format: in vivo, mice
Procedure: (§3) In vivo/ex vivo imaging and SDS-PAGE analysis of organ lysates was conducted as follows: Tumor bearing mice were prepared by following the previously described method (24). C2C12/Hras1 or MDA-MB 231 MFP cells ([…]) were injected subcutaneously on 4-8 week old male BALB/c nude mice. 14 days after transplantation, each probe (25 nmol in 100˜L of sterile PBS) was injected via the tail vein into tumor-bearing mice. Mice were imaged at various time points after injection using the IVIS 200 imaging system equipped with a Cy5.5 filter. Relative fluorescence of equal-sized areas of tumor and background were measured using Living Image software (Caliper life science). Upon finishing the last time point of imaging, mice were anesthetized and sacrificed by cervical dislocation. Tumors, livers, kidneys and spleens were collected and imaged ex vivo by using the FMT 2500 with a Cy5 filter. After ex vivo imaging, organs were lysed by a dounce homogenizer in muscle lysis buffer (1% Triton X-100, 0.1% SDS, 0.5% sodium deoxycholate, 0.2% sodium azide in PBS, pH 7.2). Total protein extracts (100˜g each) were separated by SDS-PAGE and visualized by scanning the gel with a Typhoon flatbed laser scanner.
Target sequence in this assay (O89017 18-435): as above

cathepsins [6] = assay: Competitive inhibition of cathepsins in RAW cell lysates, labeled by 125I-DCG04; format: biochemical; details: competition with 125I-DCG04
Excerpt: To test this hypothesis, we labeled RAW cell lysates with LP-1 and tLP-1 (FIG. 9).

legumain [7] = biological target: T1, legumain; assay: In vivo fluorescence imaging of mice bearing C2C12/ras xenograft tumors; details: IV tail vein, 25 nmol probe
Procedure: In order to examine in vivo properties of LP-1 and monitor active legumain levels non-invasively, we performed imaging experiments using a simple tumor xenograft model (C2C 1 2/Hras 1)(24). […] Mice were injected with the probes via tail vein and fluorescent images were collected over the course of 5 hrs. […] Furthermore, the specific legumain signal was reduced to background levels after 120 min. This is in contrast to the previously reported cathepsin probes which only provide contrast after 8-12 hours and signals are retained beyond 48 hours.
as §3
Target sequence in this assay (O89017 18-435): as above

cathepsin B = cathepsin B (Homo sapiens (Human), UniProt P07858); assay: Inhibition of cathepsin B, fluorogenic substrate Cbz-Phe-Arg-AMC
Procedure: as §4

[8] = read-out: Cathepsin L IC50, at 30 min

Sequence of cathepsin L (P07711 114-333, species assumed): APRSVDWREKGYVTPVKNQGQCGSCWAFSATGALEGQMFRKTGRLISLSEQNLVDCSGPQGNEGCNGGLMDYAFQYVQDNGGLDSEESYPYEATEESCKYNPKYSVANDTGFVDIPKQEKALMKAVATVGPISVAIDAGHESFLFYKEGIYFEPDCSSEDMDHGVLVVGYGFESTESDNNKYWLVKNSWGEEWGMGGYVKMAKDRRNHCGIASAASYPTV
Sequence of recombinant legumain (Q99538 18-433, species assumed): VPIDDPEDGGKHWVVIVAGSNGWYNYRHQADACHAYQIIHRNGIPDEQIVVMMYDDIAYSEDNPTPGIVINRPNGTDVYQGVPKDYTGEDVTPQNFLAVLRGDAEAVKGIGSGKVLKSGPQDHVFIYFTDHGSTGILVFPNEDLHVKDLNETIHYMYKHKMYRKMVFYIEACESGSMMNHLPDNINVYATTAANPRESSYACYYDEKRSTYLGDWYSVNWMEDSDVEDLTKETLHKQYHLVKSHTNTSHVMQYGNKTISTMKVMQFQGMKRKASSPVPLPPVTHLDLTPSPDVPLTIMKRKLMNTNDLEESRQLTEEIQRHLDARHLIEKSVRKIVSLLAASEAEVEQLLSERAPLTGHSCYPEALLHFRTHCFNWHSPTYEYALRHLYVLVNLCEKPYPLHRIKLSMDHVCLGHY
Sequence of caspase-3 (P42574 29-175, species assumed): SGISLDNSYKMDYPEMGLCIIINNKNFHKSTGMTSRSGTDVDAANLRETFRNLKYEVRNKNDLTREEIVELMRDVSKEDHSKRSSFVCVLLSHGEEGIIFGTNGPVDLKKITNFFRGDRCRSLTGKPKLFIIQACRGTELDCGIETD
Sequence of caspase-3 (P42574 176-277, species assumed): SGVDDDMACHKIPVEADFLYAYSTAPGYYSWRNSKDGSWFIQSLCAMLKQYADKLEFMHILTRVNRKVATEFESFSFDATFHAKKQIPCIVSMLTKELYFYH

## CCOC(=O)[C@@H]1O[C@H]1C(=O)N(CC(N)=O)NC(=O)C1CCCN1C(C)=O (stereo partly drawn) [LI-1]
Recombinant legumain
  Legumain kobs/[I] (second-order rate constant): 72350 M⁻¹ s⁻¹ and 72352 M⁻¹ s⁻¹
  IC50: 0.0115 µM
Recombinant legumain; FIG. 18
  potency and rate of legumain inhibition, comparison of inhibitors: greater potency and rate than either Li-2 or LI-0
Cathepsin L; [8]
  IC50: 220 µM
[1]
  inhibitory effect against other enzymes: no inhibitory effect
caspase-3
  IC50: 890 µM

## CCOC(=O)C1OC1C(=O)N(CC(N)=O)NC(=O)C1CCCN1C(=O)CCCCCNC(=O)CCCCCN1C(=CC=CC=CC2=[N+](CC)c3ccc(S(=O)(=O)O)cc3C2(C)C)C(C)(C)c2cc(S(=O)(=O)O)ccc21 (stereo not drawn) [LP-1]
Cathepsins [2]
  labeling of cathepsins: labeled cathepsins only at high concentrations or when legumain activity is suppressed
  cross reactivity towards lysosomal cathepsins: some degree of cross reactivity towards lysosomal cathepsins
Legumain [3]
  labeling of active legumain: selectively labeled active legumain
Legumain [3]; listed as LP-I
  labeling of active legumain: labeled active legumain more efficiently than LP-0 at low probe concentrations
Legumain [4]
  reactivity towards legumain: no difference in reactivity towards legumain
Legumain [5]; ex vivo organs and SDS-PAGE of lysates
  legumain labeling in tumors, organ distribution and cathepsin cross reactivity: the most legumain labeling in tumors as well as the highest levels of legumain-specific fluorescent signal
Legumain [5]; organ extracts, SDS-PAGE
  selectivity of legumain labeling in vivo: remarkably selective toward legumain in vivo and showed virtually no off-target labeling
Cathepsins [6]
  inhibition of cathepsins: equally poor inhibitors of the cathepsins
Legumain [7]
  accumulation / selective uptake in tumor: rapidly accumulated in tumor tissues
  time after which specific legumain signal was reduced to background levels: 120 min
  time of maximum tumor signal to background ratio: around 90 min

## CCOC(=O)/C=C/C(=O)N(CC(N)=O)NC(=O)[C@@H]1CCCN1C(=O)CCCCCNC(=O)CCCCCN1/C(=C/C=C/C=C/C2=[N+](CC)c3ccc(S(=O)(=O)O)cc3C2(C)C)C(C)(C)c2cc(S(=O)(=O)O)ccc21 [LP-2]
Cathepsins [2]
  labeling of cathepsins: did not label any cathepsins at high concentrations

## CC[N+]1=C(/C=C/C=C/C=C2/N(CCCCCC(=O)NCCCCCC(=O)N3CCC[C@H]3C(=O)N[C@@H](CC(=O)O)C(=O)COC(=O)c3c(C)cccc3C)c3ccc(S(=O)(=O)O)cc3C2(C)C)C(C)(C)c2cc(S(=O)(=O)O)ccc21 [LP-0, reference compound]
Cathepsins [2]
  cross reactivity towards lysosomal cathepsins: some degree of cross reactivity towards lysosomal cathepsins
Legumain [3]
  labeling of active legumain: selectively labeled active legumain

## CCOC(=O)[C@H]1O[C@@H]1C(=O)N[C@@H](CC(C)C)C(=O)NCCc1ccc(O)cc1 [JPM-OEt, reference compound]
Cathepsin L
  IC50: 2.98 µM
Cathepsin B
  IC50: 0.78 µM

## CC(=O)N1CCC[C@H]1C(=O)N[C@@H](CC(=O)O)C(=O)COC(=O)c1c(C)cccc1C [LI-0, reference compound]
Recombinant legumain
  Legumain kobs/[I] (second-order rate constant): 1586 M⁻¹ s⁻¹
  IC50: 0.704 µM
Recombinant legumain; listed as LI-O
  Legumain kobs/[I] (second-order rate constant): 1585 M⁻¹ s⁻¹
Cathepsin L; [8]
  IC50: > 1000 µM
Cathepsin B; read-out: Cathepsin B IC50, at 30 min
  IC50: > 1000 µM
caspase-3
  IC50: 2.8 µM

## CCOC(=O)/C=C/C(=O)N(CC(N)=O)NC(=O)[C@@H]1CCCN1C(C)=O [LI-2]
[1]; FIG. 18
  selectivity for legumain: most selective for legumain
[1]
  inhibitory effect against other enzymes: no inhibitory effect
